{
  "source": "patent US6274568A",
  "about": "“Compounds for altering cell surface sialic acids and methods of use therefor” (priority 1999, dated 2001)",
  "key": {"[1]": {"test_system": "NG108-15 cells", "assay": "Uptake of mannosamine precursors and conversion to sialic acids (precursor pool, gangliosides, glycoproteins) in NG108-15 cells, HPLC", "assay_type": "cell-based, mouse neuroblastoma/rat glioma hybrid", "details": "for ganglioside (lipid) sialic acid in the NeuGc form: NG108-15, 20 mM precursor (FIG. 3)", "procedure": "(§1) Cells were harvested using hypertonic Ca^2+ - and Mg^2+ -free phosphate-buffered saline containing 1 mM EDTA, collected by centrifugation, and homogenized in ice-cold water using a Potter-Elvehjem glass/Teflon homogenizer. Methanol (2.6 volumes) was added, the suspension mixed and brought to ambient temperature, then chloroform (1.3 volumes, based on the original homogenate) was added and the suspension mixed vigorously. The suspension was centrifuged 30 min at 2,000×g. After collecting the supernatant, the pellet (containing precipitated proteins) was resuspended in water or concentrated ammonium hydroxide and a portion was used for protein assay (BCA, Pierce, Rockford, Ill.). The supernatant was partitioned by adjusting the chloroform-methanol-water ratio to 4:8:5.6 by addition of water, mixing thoroughly, and centrifuging as above. The upper phase was collected and a portion was subjected to reverse phase chromatography, using Sep-Pak C18 cartridges (Waters, Milford, Mass.), to isolate gangliosides (Schnaar, Methods Enzymol. 230:371, 1994).\n(§2) To quantify and identify sialic acids, a portion of resolublized protein, organic/aqueous soluble pool, or reverse-phase purified gangliosides was evaporated to dryness in a 500-μl polypropylene tube and 20 μl of 0.1 M HCl/0.25 M NaCl was added. One Ampliwax bead (Perkin Elmer Corp, Foster City, Calif.) per reaction was added to block evaporation, and the sample hydrolyzed for 3 h at 80° C. Released sialic acids were analyzed by injecting an aliquot (1-10 μl) onto a Dionex high pressure liquid chromatography system (Dionex Corporation, Sunnyvale, Calif.) using a HPIC-AS6 column and a pulsed amperometric detector. Elution solutions were: A, 0.75 mM NaOH; B, 200 mM NaOH; and C, 400 mM sodium acetate in 50 mM NaOH. NeuAc and NeuPr were resolved by elution with 40% A, 50% B, 10% C for 15 min at 1 ml/min. NeuGc was resolved in separate injections using step gradient elution: 0-1.8 min, 18% A, 50% B, 32% C; 2-10 min, 40% B, 60% C. Sialic acids were identified by comparison of their elution time with those of standard NeuAc, NeuPr and NeuGc and were quantified in comparison to a standard curve of commercial NeuAc (for NeuAc and NeuPr) or NeuGc.\n(§3) To confirm that the quantified peaks represented sialic acids, 10 μl of acid hydrolysates were treated with 1 μl of 1 M sodium phosphate (pH 7.2) and 10 μl of 0.1 M NaOH. Neutralized samples were incubated at 37° C. for 2 h with or without 0.9 U of N-acetylneuraminic acid aldolase (Sigma), 32 μM NADH and 0.1 μg lactate dehydrogenase. Sialic acid content in the ganglioside and glycoprotein fractions is expressed per mg of total cell protein. Precursor pool sialic acid (sialic acid plus CMP-sialic acid) was calculated by subtracting the ganglioside value from the organic/aqueous pool value, both expressed per mg of cell protein.\nSialic acid is biosynthesized from the precursor sugar N-acetylmannosamine (FIG. 2). In the present invention, sialic acids are converted on live neuronal cells from NeuAc, which is a key determinant for MAG binding, to NeuGc, which is non-permissive for MAG binding. A potential NeuGc precursor, N-glycolylmannosamine monoacetate (ManNGcMA, FIG. 1, R1 =H) was tested for its ability to generate altered sialic acids in neuronal and non-neuronal cells. N-propanoylmannosamine (ManNPr) and other N-acyl mannosamine derivatives have been used to modify glycoprotein associated sialic acids to the corresponding N-acylneuraminic acid. N-propanoyl-mannosamine (ManNPr), was used as a positive control. […] Cell pellets were fractioned into lipid associated, protein associated, and intracellular (lipid and cytoplasmic which may consist of oligosaccharide-bound, free, or CMP-activated sialic acid) sialic acids and hydrolyzed to release sialic acid. The hydrolyzed samples were then analyzed by HPLC to determine sialic acid content. […]"}, "[2]": {"test_system": "Jurkat cells", "assay": "Uptake of mannosamine precursors and conversion to sialic acids in Jurkat cells, HPLC", "assay_type": "cell-based, human", "details": "48 h", "procedure": "as §1, §2, §3\nSialic acid is biosynthesized from the precursor sugar N-acetylmannosamine (FIG. 2). In the present invention, sialic acids are converted on live neuronal cells from NeuAc, which is a key determinant for MAG binding, to NeuGc, which is non-permissive for MAG binding. A potential NeuGc precursor, N-glycolylmannosamine monoacetate (ManNGcMA, FIG. 1, R1 =H) was tested for its ability to generate altered sialic acids in neuronal and non-neuronal cells. N-propanoylmannosamine (ManNPr) and other N-acyl mannosamine derivatives have been used to modify glycoprotein associated sialic acids to the corresponding N-acylneuraminic acid. N-propanoyl-mannosamine (ManNPr), was used as a positive control. Jurkat human lymphoma cells and NG108-15 cells (rodent neuroblastoma/glioma hybrid cells) were incubated in 20 mM synthetic precursor or control precursor (N-acetylmannosamine, ManNAc) for 48 h, then harvested. Cell pellets were fractioned into lipid associated, protein associated, and intracellular (lipid and cytoplasmic which may consist of oligosaccharide-bound, free, or CMP-activated sialic acid) sialic acids and hydrolyzed to release sialic acid. […]"}, "[3]": {"test_system": "MAG-Fc chimera", "assay": "MAG-Fc binding to precursor-treated NG108-15 cells by flow cytometry", "assay_type": "cell-based", "procedure": "Flow cytometry was used to test binding of a soluble MAG-Fc chimera to precursor-treated and control NG108-15 cells. A chimeric protein consisting of the entire extracellular domain of MAG fused via a three amino acid bridge (TGK) to the human Fc domain was produced using the \"pIgPlus\" vector (Novagen, Madison, Wis.). A PCR fragment coding for the extracellular domain of MAG was prepared using MAG in pCDM8 as template (Yang et al., 1996a), the T7 5' primer […] (SEQ ID NO:1) and […] (SEQ ID NO:2) as the 3' primer. The fragment was cut with BamHI and HindIII and directionally cloned into the pIgPlus vector. The resulting construct was sequenced to confirm its identity, transfected into COS cells, and the resulting MAG-Fc chimera was purified from the culture medium using Protein G affinity chromatography.\nFor MAG binding studies, NG108-15 cells were cultured in the presence of sialic acid precursors for the indicated times, then were released from culture dishes using hypertonic Ca^2+ /Mg^2+ -free phosphate-buffered saline (Yang et al., Proc. Natl. Acad. Sci. USA., 93:814, 1996) and resuspended (at […]) in 25 mM Hepes-buffered Hanks balanced salt solution (Bashor, Methods Enzymol., 58:119, 1979) containing 5 mg/ml bovine serum albumin. MAG-Fc (6 μg) was added to 100 μl of the same buffer containing 6 μg fluorescein isothiocyanate-labeled goat anti-human Fc (Jackson Immunoresearch, West Grove, Pa.) and incubated on ice for 1 h 45 min with frequent mixing. Cell suspension (100 μl containing 50,000 cells) was added to the premixed antibody solution and the mixture incubated on ice for 45 min. The cells were then centrifuged for 4 sec at 16,000×g and washed three times by resuspension in 200 μl of buffer with bovine serum albumin and centrifugation. The resulting cell pellet was resuspended in 100 μl buffer with bovine serum albumin and flow cytometry was performed on an Epics Profile II cytometer (Coulter Corp, Hialeah, Fla.).\nNG108-15 cells, a mouse neuroblastoma/rat glioma hybrid, display many qualities of cholinergic neurons, including neurite outgrowth, synthesis, storage and release of acetylcholine, and functional synapse formation with muscle cells in vitro. Neurite outgrowth from NG108-15 cells is inhibited by MAG (McKerracher et al., Neuron, 13:805, 1994), an interaction which is reversed by pretreatment of the cells with neuraminidase (Schnaar et al., Ann. N.Y. Acad. Sci., 845:92, 1998). […] Binding was quantified by flow cytometry. […]"}, "[4]": {"test_system": "myelin-associated glycoprotein (MAG)", "details": "cited from earlier work"}, "[5]": {"test_system": "NG108-15 cells", "assay": "Cell growth and viability of precursor-treated NG108-15 cells", "details": "1 mM", "method": "Cell growth rates were determined in control cultures (.box-solid.), in cultures treated with 0.08 mM (.circle-solid.), 0.25 mM (.smallcircle.), or 1 mM (.quadrature.) ManNGcPA, and in cultures treated with 0.25 mM (.tangle-solidup.) or 1 mM (Δ) glucose pentaacetate.\nNG108-15 cells were maintained in Dulbecco's modified Eagle's medium (high glucose formulation) containing 5% iron-enriched calf serum, 100 μM hypoxanthine, 16 μM thymidine, and 5 μM aminopterin. […] Both cell types were cultured at 37° C. in a humidified atmosphere of 90% air/10% CO2. For treatment with sialic acid precursors, mannosamine derivatives were diluted into the appropriate medium and filter sterilized. […] In experiments testing ManNGcPA, all cells (control and experimental) were grown in the presence of 0.5% (v/v) DMSO, the carrier for ManNGcPA."}, "[6]": {"details": "NG108-15, 20 mM precursor, 48 h"}},
  "note": "Entries after “also recorded” stand apart in the source; their conditions may differ.",
  "data": [
    {"compound": "CC(=O)N[C@@H]1C(O)O[C@H](CO)[C@@H](O)[C@@H]1O", "note": "(stereo partly drawn) [ManNAc, N-acetylmannosamine, reference compound]", "values": [
      {"measurement": "increase in intracellular sialic acid (precursor pool)", "setting": "[1]; 20 mM precursor, 48 h", "value": "≤ 14", "unit": "fold"},
      {"measurement": "increase in total glycoprotein sialic acid", "setting": "[1]; 20 mM precursor, 48 h", "value": "≈ 2 fold"},
      {"measurement": "levels of intracellular sialic acid", "setting": "[1]; [6]", "value": "high levels"},
      {"measurement": "levels of intracellular sialic acid", "setting": "[2]; 20 mM precursor", "value": "high levels"}
    ]},
    {"compound": "CC(=O)N[C@@H]1C(OC(C)=O)O[C@H](COC(C)=O)[C@@H](OC(C)=O)[C@@H]1OC(C)=O", "note": "(stereo partly drawn) [ManNAc-tetraacetate, ManNAc tetra-O-acetate, reference compound]", "values": [
      {"measurement": "effect on MAG-Fc binding", "setting": "[3]; 1 mM, 96 h", "value": "no significant effect on binding"}
    ]},
    {"compound": "CC(=O)OC[C@H]1OC(OC(C)=O)[C@@H](NC=O)[C@@H](OC(C)=O)[C@@H]1OC(C)=O", "note": "(stereo partly drawn) [ManNFr-OAc, N-formylmannosaminne peracetate]", "values": [
      {"measurement": "glycolipid associated sialic acid as NeuFr", "setting": "[1]; 48 hours", "value": 10, "unit": "%"},
      {"measurement": "levels of intracellular sialic acid in the form of NeuFr", "setting": "[1]; FIG. 13", "value": "elevated levels of intracellular sialic acid in the form of N-formyneuraminic acid"}
    ]},
    {"compound": "O=C(CO)N[C@@H]1C(O)O[C@H](CO)[C@@H](O)[C@@H]1O", "note": "(stereo partly drawn) [ManNGc, N-glycolylmannosamine]", "values": [
      {"measurement": "levels of NeuGc in any of the fractions analyzed", "setting": "[1]; 5 mM", "value": "did not result in substantial levels of NeuGc"},
      {"measurement": "levels of NeuGc (elevation)", "setting": "[1]; 5 mM in the presence of DMSO, 48 h", "value": "did not result in elevated levels of NeuGc"},
      {"measurement": "intracellular sialic acid in the form of NeuGc", "setting": "[1]; 5 mM, 48 h", "value": 13.6, "unit": "%"},
      {"measurement": "protein associated sialic acid as NeuGc", "setting": "[1]; 5 mM, 48 h", "value": 9.5, "unit": "%"},
      {"measurement": "total lipid associated sialic acid as NeuGc", "setting": "[1]; 5.0 mM, 48 h", "value": 5, "unit": "%"},
      {"measurement": "ganglioside (lipid) sialic acid in the NeuGc form", "setting": "[1]; 48 h", "value": "~70", "unit": "%"},
      {"measurement": "intracellular NeuGc", "setting": "[1]; NG108-15 compared with Jurkat, 48 h", "value": "substantially lower levels"},
      {"measurement": "glycoconjugate sialic acid in the form of NeuGc", "setting": "[1]; in MAG recognition experiment", "value": 60, "unit": "%"},
      {"measurement": "intracellular NeuGc", "setting": "[2]", "value": "expected rise in intracellular NeuGc"},
      {"measurement": "lipid sialic acid in the form of NeuGc", "setting": "[2]", "value": "Approximately 50%"},
      {"measurement": "protein sialic acid in the form of NeuGc", "setting": "[2]", "value": "Approximately 50%"},
      {"measurement": "decrease in MAG-mediated recognition", "setting": "[3]; ng108-15 cells", "value": 60, "unit": "%"}
    ]},
    {"compound": "CC(=O)OCC(=O)N[C@@H]1C(O)O[C@H](CO)[C@@H](O)[C@@H]1O", "note": "(stereo partly drawn) [ManNGcMA, N-Glycolylmannosamine monoacetate]", "values": [
      {"measurement": "incorporation of NeuGc into gangliosides, relative to 1 mM ManNGcPA", "setting": "[1]; 5 mM, 48 h", "value": "much less"},
      {"measurement": "incorporation of NeuGc into glycoproteins, relative to 1 mM ManNGcPA", "setting": "[1]; 5 mM, 48 h", "value": "much less"},
      {"measurement": "conversion of glycoprotein sialic acids to the NeuGc form", "setting": "[1]; 20 mM precursor, 48 h", "value": "≈ 30%"},
      {"measurement": "decrease in total glycoprotein sialic acid", "setting": "[1]; 20 mM precursor, 48 h", "value": "≈ 40%"},
      {"measurement": "sialic acid precursor pool in the NeuGc form", "setting": "[1]; 20 mM precursor, 48 h", "value": "≈ 70%"},
      {"measurement": "sialic acid precursor pool size compared to untreated control", "setting": "[1]; 20 mM precursor, 48 h", "value": "markedly smaller sialic acid precursor pool"},
      {"measurement": "sialic acid precursor pool size", "setting": "[1]; 0.1 or 1.0 mM ManNGcPA, or 5 mM ManNGcMA, 48 h", "value": "none of these treatments significantly altered the sialic acid precursor pool size"},
      {"measurement": "ganglioside (lipid) sialic acid in the NeuGc form", "setting": "[1]; 48 h", "value": "≈ 30%"},
      {"measurement": "size of the ganglioside pool", "setting": "[1]; [6]", "value": "remained relatively constant"},
      {"measurement": "sialic acid precursor pool as NeuGc", "setting": "[2]; 20 mM precursor", "value": "nearly all NeuGc"},
      {"measurement": "total sialic acid precursor pool size", "setting": "[2]; 20 mM precursor", "value": "increase in total sialic acid precursor pool size (comparable to treatment with ManNPr)"}
    ]},
    {"compound": "O=C(CO)N[C@H]1[C@H]([C@H](O)[C@H](O)CO)OC(O)(C(=O)O)C[C@@H]1O", "note": "(stereo partly drawn) [NeuGc, N-glycolylneuraminic acid]", "values": [
      {"measurement": "support of MAG binding / recognition", "setting": "[4]", "value": "but not N-glycolylneuraminic acid (NeuGc) support MAG binding; also recorded: does not support MAG binding"}
    ]},
    {"compound": "glucose pentaacetate", "values": [
      {"measurement": "cell growth", "setting": "[5]", "value": "more profound decreases in cell growth and viability than the ManNGcPA-treated cells"},
      {"measurement": "cell viability (in words)", "setting": "[5]", "value": "more profound decreases in cell growth and viability than the ManNGcPA-treated cells"}
    ]}
  ]
}
